# Results published in patent US20080104722A1, “DISEASE MODEL ANIMALS OF METABOLIC SYNDROME AND A METHOD OF SCREENING PREVENTIVE AND THERAPEUTIC AGENTS FOR METABOLIC SYNDROME USING THE SAME” (REDOX BIOSCIENCE INC., priority 2006, published 2008).
# Experiments:
# [1] = system: Wild type mice; assay: Glucose or oleic acid supplementation in drinking water while deprived of other food, wild type mice; type: in vivo, mouse; settings: 20% glucose or 10% oleic acid in drinking water, deprived of other food (data not shown)
# Source text: (§1) Glucose and fatty acids are known to be the major energy sources from foods. The anomaly observed in TBP-2^−/− mice strongly indicates the occurrence of nutritional dysmetabolism. To examine this hypothesis, these mice were housed with free access to 20% glucose or 10% oleic acid in drinking water, while deprived of other food.
# [2] = system: TBP-2^−/− mice; assay: Glucose or oleic acid supplementation in drinking water while deprived of other food, TBP-2 knockout mice; type: in vivo
# Procedure: Blood was collected from the tail veins. Triglyceride concentrations were measured using a Wako Triglyceride Test kit according to the manufacturer's instructions (Wako Pure Chemical Industries, Ltd.). Serum insulin levels were quantified using a Mouse Insulin ELISA kit (Shibayagi Co. Ltd.). The other blood assays were performed by Falco Biosystems Ltd. The liver was removed under anesthesia at appropriate time points, and paraffin sections were prepared. Standard hematoxylin-eosin and Oil Red O staining was performed.
# as §1
structure (smiles),measurement,setting,value
CCCCCCCC/C=C\CCCCCCCC(=O)O [oleic acid],survival of wild type mice,[1],able to survive
same,rescue (survival) of TBP-2^−/− mice,"[2]; 10% oleic acid in drinking water, deprived of other food (FIG. 9A)",not rescued
same,symptoms compared with fasted TBP-2^−/− mice,[2]; oleic acid supplementation (data not shown),identical symptoms
